Source: patent US11739101B2, “Bifunctional degraders of hematopoietic progenitor kinase and therapeutic uses thereof” (Nurix Therapeutics, Inc., priority 2020, dated 2023)

Target: T1, HPK1 (Homo sapiens, UniProt Q92918)
T1 construct: A HiBiT tag was introduced by CRISPR on the N terminus of HPK1 in Jurkat cells; host or cells: Jurkat (ATCC TIB-152), monoclonal CRISPR HiBiT knock-in line
Experiment: HPK1 Cellular HiBiT Degradation Assay
Format: cell-based
Conditions: HiBiT-tagged HPK1 Jurkat cells, 24 hours, 10 uM to 0.1 nM; Dmax = 100 minus lowest % HPK1 remaining vs DMSO vehicle
How it was run: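 Jurkat cells with CRISPR N-terminal HiBiT-tagged HPK1 were exposed to an 11-point 3.16-fold dilution series, 10 uM to 0.1 nM final, for 24 hours at 37° C./5% CO2. HPK1 was read by HiBiT lytic luminescence against DMSO as 100% and parental cells as background. Dmax is 100 minus the lowest % remaining from a four-parameter fit, with a parallel CellTiter-Glo viability check.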

T1 sequence (Q92918 whole entry): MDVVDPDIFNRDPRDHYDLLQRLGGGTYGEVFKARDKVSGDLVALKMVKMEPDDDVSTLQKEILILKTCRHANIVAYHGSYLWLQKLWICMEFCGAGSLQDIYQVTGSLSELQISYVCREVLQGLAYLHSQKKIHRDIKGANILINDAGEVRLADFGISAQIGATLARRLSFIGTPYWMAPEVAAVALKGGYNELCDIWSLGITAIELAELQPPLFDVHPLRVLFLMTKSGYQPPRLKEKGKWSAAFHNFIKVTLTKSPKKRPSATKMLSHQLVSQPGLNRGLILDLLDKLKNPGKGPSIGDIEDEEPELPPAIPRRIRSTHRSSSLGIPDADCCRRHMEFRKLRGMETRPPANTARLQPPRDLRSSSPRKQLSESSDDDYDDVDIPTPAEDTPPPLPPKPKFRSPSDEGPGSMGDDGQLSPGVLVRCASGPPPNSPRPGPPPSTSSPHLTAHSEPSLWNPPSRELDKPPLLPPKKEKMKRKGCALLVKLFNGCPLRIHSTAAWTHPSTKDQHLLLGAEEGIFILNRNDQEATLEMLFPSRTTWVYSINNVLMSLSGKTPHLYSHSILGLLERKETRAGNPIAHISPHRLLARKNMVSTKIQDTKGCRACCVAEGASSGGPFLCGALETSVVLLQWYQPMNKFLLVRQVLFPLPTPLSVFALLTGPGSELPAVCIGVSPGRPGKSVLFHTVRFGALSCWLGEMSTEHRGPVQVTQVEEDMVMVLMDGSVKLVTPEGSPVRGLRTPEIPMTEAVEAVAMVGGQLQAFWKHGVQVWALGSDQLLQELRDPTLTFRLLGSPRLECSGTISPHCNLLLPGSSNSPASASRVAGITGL

Compound | Dmax [%]
Cc1cc(F)c(Nc2nc(-c3ccc4c(c3)N([C@H]3C[C@@H](N5CCCCC5)C3)C(=O)C43CCN(C(=O)CCOCCNc4cccc5c4C(=O)N(C4CCC(=O)NC4=O)C5=O)CC3)cc3ncn(C(C)C)c23)cc1C(=O)NC(C)C (stereo partly drawn) [Example 11, 5-((6-(1′-(3-(2-((2-(2,6-dioxopiperidin-3-yl)-1,3-dioxoisoindolin-4-yl)amino)ethoxy)propanoyl)-2-oxo-1-((1s,3s)-3-(piperidin-1-yl)cyclobutyl)spiro[indoline-3,4′-piperidin]-6-yl)-3-isopropyl-3H-imidazo[4,5-c]pyridin-4-yl)amino)-4-fluoro-N-isopropyl-2-methylbenzamide] | < 45
Cc1cc(F)c(Nc2nc(-c3ccc4c(c3)N([C@H]3C[C@@H](N5CCCCC5)C3)C(=O)C43CCN(C(=O)CN4CCN(c5ccc(CC(=O)NCCNc6cccc7c6C(=O)N(C6CCC(=O)NC6=O)C7=O)cc5)CC4)CC3)cc3ncn(C(C)C)c23)cc1C(=O)NC(C)C (stereo partly drawn) [Example 44, 5-({6-[1′-(2-{4-[4-({[2-({2-[2,6-dioxopiperidin-3-yl]-1,3-dioxo-2,3-dihydro-1H-isoindol-4-yl}amino)ethyl]carbamoyl}methyl)phenyl]piperazin-1-yl}acetyl)-2-oxo-1-[(1s,3s)-3-(piperidin-1-yl)cyclobutyl]-1,2-dihydrospiro[indole-3,4′-piperidin]-6-yl]-3-(propan-2-yl)-3H-imidazo[4,5-c]pyridin-4-yl}amino)-4-fluoro-2-methyl-N-(propan-2-yl)benzamide] | 45 to 65
Cc1cc(F)c(Nc2nc(-c3ccc4c(c3)N([C@H]3C[C@@H](N5CCCCC5)C3)C(=O)C43CCN(C(=O)c4ccc(C(=O)N5C6CCC5CN(c5ccc7c(c5)C(=O)N(C5CCC(=O)NC5=O)C7=O)C6)cc4)CC3)cc3ncn(C(C)C)c23)cc1C(=O)NC(C)C (stereo partly drawn) [Example 93, 5-({6-[1′-(4-{3-[2-(2,6-dioxopiperidin-3-yl)-1,3-dioxoisoindol-5-yl]-3,8-diazabicyclo[3.2.1]octane-8-carbonyl}benzoyl)-2-oxo-1-[(1s,3s)-3-(piperidin-1-yl)cyclobutyl]spiro[indole-3,4′-piperidin]-6-yl]-3-isopropylimidazo[4,5-c]pyridin-4-yl}amino)-4-fluoro-N-isopropyl-2-methylbenzamide] | 45 to 65
Cc1cc(F)c(Nc2nc(-c3ccc4c(c3)N([C@H]3C[C@@H](N5CCCCC5)C3)C(=O)C43CCN(C(=O)Cc4ccc(N5CCN(CC(=O)N[C@H](C(=O)N6C[C@H](O)C[C@H]6C(=O)N[C@@H](C)c6ccc(-c7scnc7C)cc6)C(C)(C)C)CC5)cc4)CC3)cc3ncn(C(C)C)c23)cc1C(=O)NC(C)C [Example 47, (2S,4R)-1-[(2S)-2-(2-{4-[4-(2-{6-[4-({2-fluoro-4-methyl-5-[(propan-2-yl)carbamoyl]phenyl}amino)-3-(propan-2-yl)-3H-imidazo[4,5-c]pyridin-6-yl]-2-oxo-1-[(1s,3s)-3-(piperidin-1-yl)cyclobutyl]-1,2-dihydrospiro[indole-3,4′-piperidin]-1′-yl}-2-oxoethyl)phenyl]piperazin-1-yl}acetamido)-3,3-dimethylbutanoyl]-4-hydroxy-N-[(1S)-1-[4-(4-methyl-1,3-thiazol-5-yl)phenyl]ethyl]pyrrolidine-2-carboxamide] | > 65
Cc1cc(F)c(Nc2nc(-c3ccc4c(c3)N([C@H]3C[C@@H](N5CCCCC5)C3)C(=O)C43CCN(C(=O)CCCCCCCNc4ccc5c(c4)C(=O)N(C4CCC(=O)NC4=O)C5=O)CC3)cc3ncn(C(C)C)c23)cc1C(=O)NC(C)C (stereo partly drawn) [Example 3, 5-((6-(1′-(8-((2-(2,6-dioxopiperidin-3-yl)-1,3-dioxoisoindolin-5-yl)amino)octanoyl)-2-oxo-1-((1s,3s)-3-(piperidin-1-yl)cyclobutyl)spiro[indoline-3,4′-piperidin]-6-yl)-3-isopropyl-3H-imidazo[4,5-c]pyridin-4-yl)amino)-4-fluoro-N-isopropyl-2-methylbenzamide] | < 45
Cc1cc(F)c(Nc2nc(-c3ccc4c(c3)N([C@H]3C[C@@H](N5CCCCC5)C3)C(=O)C43CCN(C(=O)C4CN(CC5CCN(c6cccc7c6C(=O)N(C6CCC(=O)NC6=O)C7=O)C5)C4)CC3)cc3ncn(C(C)C)c23)cc1C(=O)NC(C)C (stereo partly drawn) [Example 35, 5-({6-[1′-(1-{[1-{2-[2,6-dioxopiperidin-3-yl]-1,3-dioxo-2,3-dihydro-1H-isoindol-4-yl}pyrrolidin-3-yl]methyl}azetidine-3-carbonyl)-2-oxo-1-[(1s,3s)-3-(piperidin-1-yl)cyclobutyl]-1,2-dihydrospiro[indole-3,4′-piperidin]-6-yl]-3-(propan-2-yl)-3H-imidazo[4,5-c]pyridin-4-yl}amino)-4-fluoro-2-methyl-N-(propan-2-yl)benzamide] | 45 to 65
Cc1cc(F)c(Nc2nc(-c3ccc4c(c3)N([C@H]3C[C@@H](N5CCCCC5)C3)C(=O)C43CCN(C(=O)C4CCN(CC5CCN(c6cccc7c6C(=O)N(C6CCC(=O)NC6=O)C7=O)CC5)CC4)CC3)cc3ncn(C(C)C)c23)cc1C(=O)NC(C)C (stereo partly drawn) [Example 37, 5-{[6-(1′-{1-[(1-{2-[2,6-dioxopiperidin-3-yl]-1,3-dioxo-2,3-dihydro-1H-isoindol-4-yl}piperidin-4-yl)methyl]piperidine-4-carbonyl}-2-oxo-1-[(1s,3s)-3-(piperidin-1-yl)cyclobutyl]-1,2-dihydrospiro[indole-3,4′-piperidin]-6-yl)-3-(propan-2-yl)-3H-imidazo[4,5-c]pyridin-4-yl]amino}-4-fluoro-2-methyl-N-(propan-2-yl)benzamide] | > 65

Continued, values first:

Dmax [%] | Compound
> 65 | Cc1cc(F)c(Nc2nc(-c3ccc4c(c3)N([C@H]3C[C@@H](N5CCCCC5)C3)C(=O)C43CCN(C(=O)c4ccc(C(=O)N5CCN(c6ccc7c(c6)C(=O)N(C6CCC(=O)NC6=O)C7=O)CC5)cc4Cl)CC3)cc3ncn(C(C)C)c23)cc1C(=O)NC(C)C (stereo partly drawn) [Example 71, 5-[(6-{1′-[2-chloro-4-(4-{2-[2,6-dioxopiperidin-3-yl]-1,3-dioxo-2,3-dihydro-1H-isoindol-5-yl}piperazine-1-carbonyl)benzoyl]-2-oxo-1-[(1s,3s)-3-(piperidin-1-yl)cyclobutyl]-1,2-dihydrospiro[indole-3,4′-piperidin]-6-yl}-3-(propan-2-yl)-3H-imidazo[4,5-c]pyridin-4-yl)amino]-4-fluoro-2-methyl-N-(propan-2-yl)benzamide]
45 to 65 | Cc1cc(F)c(Nc2nc(-c3ccc4c(c3)N([C@H]3C[C@@H](N5CCCCC5)C3)C(=O)C43CCN(C(=O)[C@H]4CC[C@@H](C(=O)N5CCC(Oc6cccc7c6C(=O)N(C6CCC(=O)NC6=O)C7=O)CC5)CC4)CC3)cc3ncn(C(C)C)c23)cc1C(=O)NC(C)C (stereo partly drawn) [Example 96, 4-fluoro-N-isopropyl-5-[(3-isopropyl-6-{2-oxo-1-[(1s,3s)-3-(piperidin-1-yl)cyclobutyl]-1′-[(1s,4s)-4-[4-({2-[(3S)-2,6-dioxopiperidin-3-yl]-1,3-dioxoisoindol-4-yl}oxy)piperidine-1-carbonyl]cyclohexanecarbonyl]spiro[indole-3,4′-piperidin]-6-yl}imidazo[4,5-c]pyridin-4-yl)amino]-2-methylbenzamide]
45 to 65 | Cc1cc(F)c(Nc2nc(-c3ccc4c(c3)N([C@H]3C[C@@H](N5CCCCC5)C3)C(=O)C43CCN(C(=O)c4ccc(C(=O)N5CCN(c6ccc7c(c6)C(=O)N(C6CCC(=O)NC6=O)C7=O)CC5)cc4)CC3)cc3ncn(C(C)C)c23)cc1C(=O)NC(C)C (stereo partly drawn) [Example 78, 5-((6-(1′-(4-(4-(2-(2,6-dioxopiperidin-3-yl)-1,3-dioxoisoindolin-5-yl)piperazine-1-carbonyl)benzoyl)-2-oxo-1-((1s,3s)-3-(piperidin-1-yl)cyclobutyl)spiro[indoline-3,4′-piperidin]-6-yl)-3-isopropyl-3H-imidazo[4,5-c]pyridin-4-yl)amino)-4-fluoro-N-isopropyl-2-methylbenzamide]
> 65 | Cc1cc(F)c(Nc2nc(-c3ccc4c(c3)N([C@H]3C[C@@H](N5CCCCC5)C3)C(=O)C43CCN(C(=O)c4ccc(OC5CCN(c6cccc7c6C(=O)N(C6CCC(=O)NC6=O)C7=O)CC5)cc4)CC3)cc3ncn(C(C)C)c23)cc1C(=O)NC(C)C (stereo partly drawn) [Example 63, 5-{[6-(1′-{4-[(1-{2-[2,6-dioxopiperidin-3-yl]-1,3-dioxo-2,3-dihydro-1H-isoindol-4-yl}piperidin-4-yl)oxy]benzoyl}-2-oxo-1-[(1s,3s)-3-(piperidin-1-yl)cyclobutyl]-1,2-dihydrospiro[indole-3,4′-piperidin]-6-yl)-3-(propan-2-yl)-3H-imidazo[4,5-c]pyridin-4-yl]amino}-4-fluoro-2-methyl-N-(propan-2-yl)benzamide]
45 to 65 | Cc1cc(F)c(Nc2nc(-c3ccc4c(c3)N([C@H]3C[C@@H](N5CCCCC5)C3)C(=O)C43CCN(C(=O)C[C@H]4CC[C@H](Nc5cccc6c5C(=O)N(C5CCC(=O)NC5=O)C6=O)CC4)CC3)cc3ncn(C(C)C)c23)cc1C(=O)NC(C)C (stereo partly drawn) [Example 80, 5-((6-(1′-(2-((1R,4R)-4-((2-(2,6-dioxopiperidin-3-yl)-1,3-dioxoisoindolin-4-yl)amino)cyclohexyl)acetyl)-2-oxo-1-((1s,3s)-3-(piperidin-1-yl)cyclobutyl)spiro[indoline-3,4′-piperidin]-6-yl)-3-isopropyl-3H-imidazo[4,5-c]pyridin-4-yl)amino)-4-fluoro-N-isopropyl-2-methylbenzamide]
